The text below walks through data of patent publication US20060040924A1, “Derivatives of aryl (or heteroaryl) azolylcarbinols for the treatment of renal colic” (Laboratorios Dr. Esteve S.A., priority 2004, published 2006).

The test system of this data set is patients presenting with acute pain from suspected renal colic. As to the kind of experiment: Clinical Study A: analgesic efficacy and safety of cizolirtine citrate versus sodium metamizol, single intravenous dose. As to conditions: for proportion of patients showing complete pain relief / proportion of patients showing satisfactory pain relief (decrease of pain intensity ≧50%): VAS at t+30 min; for Pain in the VAS at t + 30 min (LSM [SEM]), primary efficacy endpoint: per protocol population, 100 mm VAS, 30 min after start of single iv infusion (350 mg cizolirtine citrate or 2,500 mg sodium metamizol), adjusted means; for number of adverse events: per treatment group (32 randomized each), vomits and one episode of fever, all mild or moderate, none serious. In kind it is in vivo, human. The method, then:
Objectives: to compare the analgesic efficacy and safety of cizolirtine citrate, an inhibitor of the release of the substance P, versus sodium metamizol to treat acute pain. Method: sixty four patients presenting with acute pain from suspected renal colic were randomized to a single intravenous dose of either 350 mg of cizolirtine citrate or 2,500 mg of sodium metamizol. Pain was assessed throughout 6 hours by means of visual analogical (VAS) and categorical scales. Results: renal colic was confirmed in all patients randomized. After 30 minutes, pain adjusted mean scores (100 mm VAS) were (LSM±SEM) 39.203±4.4 mm and 30.155±4.2 mm. In the cizolirtine and metamizol groups, respectively (p=0.1203). […] However, efficacy was lower than that of the comparator, an established treatment.
Study population: Subjects of either sex aged between 18 and 65 years old suffering moderate to severe pain due to a suspected renal colic starting within previous 24 hour and having a urine dipstick test positive for haematuria. Since this was an exploratory pilot phase II study, a formal sample size calculation was not performed. Moreover, no previous information regarding a comparison between the effects of sodium metamizol and placebo as analgesics for the management of renal colic could be found. Therefore, a minimum effect size to establish a non-inferiority margin was not be established. Nevertheless, to detect a difference of at least 25 mm in pain intensity measured with the VAS assuming a common standard deviation of 36.1 by means of a one-sided t test, 26 patients per group were necessary. Considering a dropout rate of 20%, 64 patients were recruited in the study
Study treatments: Either one single 350 mg dose of cizolirtine citrate or one single 2,500 mg dose of sodium metamizol by slow intravenous infusion in 15 minutes in a double-blind and randomized fashion and in a 1:1 proportion. Rescue doses of butorphanol were given as needed but were not allowed during the first 30 minutes.
Measurements: Patients ranked their pain intensity on both a visual analogical scale (VAS) and a verbal categorical scale at baseline and 15, 30 and 45 minutes and 1, 2, 3, 4, […] after receiving the study drug. Vital signs were determined also at 15, 30 and 45 minutes and at 1 and 6 hours. Active questioning for adverse events since receiving study medication was done after 2 hours. Confirmatory diagnosis of an ureteral stone had to be established before the end of the study.
Primary endpoint: mean pain intensity as determined by the VAS 30 minutes after the start of study drug administration (t+30 min).
Statistics: Demographic and baseline continuous variables values were compared between treatment groups by means of a t test. Primary efficacy analyses were performed in the per protocol population. An analysis of covariance model with the factors treatment, centre and the treatment by centre interaction and considering the baseline value as a covariate was used or the comparison between the groups. In addition, the bilateral 95% confidence interval was calculated for the difference between treatments.
The proportions of patients with complete and satisfactory pain relief between treatments at t+30 min were compared between treatment groups by means of a chi-square test and also the bilateral 95% confidence intervals for the differences were calculated. The time-treatment variables were evaluated by means of the Kaplan-Meier method and the log-rank test was used to compare the treatment groups, pain intensity differences as determined by means of the visual analogical scale (APID), pain intensity differences as determined by means of the categorical scale (CPID) and relief of pain as determined by means of the categorical scale on pain relief (PAR) from baseline to t+30 min were compared between treatment groups by means of a repeated measures analysis of variance. […]

Where [1] appears, read: 30 min after start of single iv dose, versus baseline.

`CN(C)CCO[C@H](c1ccccc1)c1ccnn1C.O=C(O)CC(O)(CC(=O)O)C(=O)O` (racemic) [Cizolirtine, (±)-5-{α-[2-(dimethylamino)ethoxy]benzyl}-1-methyl-1H-pirazole citrate]: the “proportion of patients showing complete pain relief” value stood at 48.4%; the “proportion of patients showing satisfactory pain relief (decrease of pain intensity ≧50%)” value is reported as 64.5%; the “Pain in the VAS at t + 30 min (LSM [SEM]), primary efficacy endpoint” value (from here on “Pain … (LSM [SEM]), primary efficacy endpoint”) turned out to be 39.203±4.4 mm; the “number of adverse events” value is listed as 3. Moreover, the “mean decrease in pain intensity (VAS) at t+30 min” value under setting [1] is listed as 57.2%. The “onset of analgesia relative to comparator (time-curves APID, CPID, PAR)” value (difference disappears after 2 hours) is on record as “deferred with respect to that provided by metamizol”.
For the compound `Cc1c(N(C)CS(=O)(=O)[O-])c(=O)n(-c2ccccc2)n1C.[Na+]` [Metamizol, sodium metamizol], the “proportion of patients showing complete pain relief” value was 56.3%; the “proportion of patients showing satisfactory pain relief (decrease of pain intensity ≧50%)” value is 75.0%; the “Pain … (LSM [SEM]), primary efficacy endpoint” value was determined as 30.155 mm; the “number of adverse events” value is 3. Under setting [1], the “mean decrease in pain intensity (VAS) at t+30 min” value was 69.1% and the “mean reductions in pain intensity determined by the VAS at t+30 min” value was determined as 57.1 mm. Also, the “Pain … (LSM [SEM]), primary efficacy endpoint” value (listed as metamizol) came to 30.155±4.2 mm.
